Reference: US8106046B2, “Cyclopentathiophene modulators of the glucocorticoid receptor, AP-1, and/or NF-κB activity and use thereof” (Bristol-Myers Squibb Company, priority 2008, dated 2012)
Like-named read-outs stand apart in the source and are kept apart here.

Assays:
[1] = molecular target: T1, human glucocorticoid receptor (Homo sapiens, UniProt P04150); assay: Glucocorticoid Receptor Binding Assay (I), fluorescence polarization competitor assay; conditions: purified human recombinant full-length GR, Fluormone GS Red
T1 construct: purified human recombinant full-length glucocorticoid receptor (2 nM); purchased Invitrogen Part #2893
T1 sequence (P04150 1-777): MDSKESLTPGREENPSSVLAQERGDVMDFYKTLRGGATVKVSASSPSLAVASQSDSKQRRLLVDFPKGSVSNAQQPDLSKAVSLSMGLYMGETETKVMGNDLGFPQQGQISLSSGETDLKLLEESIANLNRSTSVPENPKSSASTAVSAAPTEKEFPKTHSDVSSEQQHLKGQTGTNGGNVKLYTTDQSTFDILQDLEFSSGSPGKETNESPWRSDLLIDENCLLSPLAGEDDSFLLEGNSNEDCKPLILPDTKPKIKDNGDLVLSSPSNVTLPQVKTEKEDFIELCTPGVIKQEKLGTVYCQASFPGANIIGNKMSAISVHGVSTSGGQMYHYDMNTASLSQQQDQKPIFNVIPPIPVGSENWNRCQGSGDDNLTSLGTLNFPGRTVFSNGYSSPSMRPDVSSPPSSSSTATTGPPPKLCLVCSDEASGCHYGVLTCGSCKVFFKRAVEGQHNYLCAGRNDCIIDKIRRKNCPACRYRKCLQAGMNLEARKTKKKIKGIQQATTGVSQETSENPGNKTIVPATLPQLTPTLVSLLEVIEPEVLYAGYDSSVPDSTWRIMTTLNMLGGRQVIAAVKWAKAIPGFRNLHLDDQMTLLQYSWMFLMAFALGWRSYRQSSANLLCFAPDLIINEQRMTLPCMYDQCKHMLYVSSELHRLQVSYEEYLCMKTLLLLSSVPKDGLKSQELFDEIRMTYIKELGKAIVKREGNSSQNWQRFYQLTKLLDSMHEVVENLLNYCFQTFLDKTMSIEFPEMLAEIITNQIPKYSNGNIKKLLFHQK
Description: In order to assess the affinity of test compounds for the human glucocorticoid receptor, a commercially available kit was used (Glucocorticoid Receptor Competitor Assay Kit, Invitrogen Part #2893). Briefly, purified human recombinant full-length glucocorticoid receptor (2 nM) was mixed with fluorescently labeled glucocorticoid (1 nM Fluormone GS Red) in the presence or absence of test compound. After two hour incubation at room temperature in the dark, the fluorescence polarization (FP) of the samples was measured. The FP of a mixture of receptor, fluorescent probe (i.e., Fluormone GS Red) and 5 μM dexamethasone represented background fluorescence or 100% inhibition, whereas, the FP of the mixture without dexamethasone (but in the presence of vehicle) was taken to be 100% binding. […] Test compounds were analyzed in the concentration range from 8.5E-05 μM to 5 μM.

[2] = tested on: AP-1 induced transcriptional activity; assay: Cellular Transrepressional Assay (AP-1 luciferase reporter in A549 cells, PMA activated); assay type: cell-based; conditions: 10 ng/ml PMA, 7 hours; for AP-1 Max % inh (Cellular Transrepression Assay): maximum inhibition; for EC50: read-out: AP-1 EC50, nM (Cellular Transrepression Assay)
Description: To measure the ability of test molecules to inhibit AP-1 induced transcriptional activity we utilized an A549 cell which was stably transfected with a plasmid containing 7×AP-1 DNA binding sites (pAP-1-Luc plasmid, Stratagene Co. La Jolla, Calif.) followed by the gene for luciferase. Cells were activated with 10 ng/ml of phorbol myristic acid (PMA) plus or minus test molecules for 7 hours. After 7 hours a luciferase reagent was added to measure luciferase enzymatic activity in the cell. After a 10 minute incubation of luciferase reagent with cells, luminescence was measured in a TopCount luminescence counter. Repression of AP-1 activity was calculated as the percentage decrease in the signal induced by PMA alone. Test molecules were analyzed in the concentration range from 0.1 nM to 40 μM. EC50s were determined by using standard curve fitting methods such as Excel fit (Microsoft Co.). An EC50 is the test molecule concentration at which there is a 50% repression of the maximal inhibition of transcription, i.e., a 50% reduction of AP-1 activity.

| SMILES | Ki [1] | AP-1 Max % inh (Cellular Transrepression Assay) [2] | EC50 [2] | EC50 ([2]; Homo sapiens) |
| --- | --- | --- | --- | --- |
| C[C@]1(C(=O)Nc2nncs2)Cc2sc(Br)cc2[C@H]1c1ccccc1 [Example 2, (4S,5S)-2-Bromo-5-methyl-4-phenyl-N-(1,3,4-thiadiazol-2-yl)-5,6-dihydro-4H-cyclopenta[b]thiophene-5-carboxamide] | 5.34 nM |  |  |  |
| C[C@@]1(C(=O)Nc2nncs2)Cc2sc(-c3ccc(C(=O)N4CCOCC4)cc3)cc2[C@@H]1c1ccccc1 [Example 18] |  | 29.81% | 27.3 nM |  |
| CN(C)C(=O)c1ccc(-c2cc3c(s2)C[C@](C)(C(=O)Nc2nncs2)[C@@H]3c2ccccc2)cc1F (racemic) [Example 9] |  | 26.03% | 40.2 nM |  |
| CN(C)C(=O)c1ccc(-c2cc3c(s2)C[C@@](C)(C(=O)Nc2nncs2)[C@H]3c2ccccc2)cc1 [Example 19] |  | 38.78% | 21.8 nM |  |
| C[C@]1(C(=O)Nc2nncs2)Cc2sc(-c3ccc(C(=O)N4CCOCC4)cc3)cc2[C@H]1c1ccccc1 (racemic) [Example 7] |  | 44.81% | 22.5 nM |  |
| CCN(C)C(=O)c1ccc(-c2cc3c(s2)CC(C)(C(=O)Nc2nncs2)C3c2ccccc2)cc1Cl (racemic) [Example 11] | 1.9 nM |  |  |  |
| CCN(C)C(=O)c1ccc(-c2cc3c(s2)C[C@](C)(C(=O)Nc2nncs2)[C@@H]3c2ccccc2)cc1F (racemic) [Example 10] |  | 27.94% | 24.2 nM |  |
| C[C@@]1(C(=O)Nc2nncs2)Cc2sc(Br)cc2[C@@H]1c1ccccc1 [Example 3, (4R,5R)-2-Bromo-5-methyl-4-phenyl-N-(1,3,4-thiadiazol-2-yl)-5,6-dihydro-4H-cyclopenta[b]thiophene-5-carboxamide] | 1.8 nM |  |  |  |
| C[C@]1(C(=O)Nc2nnc(C(=O)NC3CC3)s2)Cc2sc(-c3ccc(C(=O)N4CCOCC4)cc3)cc2[C@H]1c1ccccc1 [Example 21] |  | 60.04% |  | 22.8 nM |
| C[C@]1(C(=O)Nc2nncs2)Cc2sc(-c3ccc(C(=O)N4CCOCC4)cc3)cc2[C@H]1c1ccccc1 [Example 13] |  | 50.68% | 23.9 nM |  |
| CC1(C(=O)Nc2nncs2)Cc2sc(Br)cc2C1c1ccccc1 (racemic) [Example 1, (+/−)-2-Bromo-5-methyl-4-phenyl-N-(1,3,4-thiadiazol-2-yl)-5,6-dihydro-4H-cyclopenta[b]thiophene-5-carboxamide] | 5.3 nM |  |  |  |
| C[C@]1(C(=O)Nc2nncs2)Cc2sc(-c3ccc(C(=O)N4CCCC4)cc3)cc2[C@H]1c1ccccc1 [Example 16] |  | 56.78% | 290 nM |  |
| CC(C)NC(=O)c1nnc(NC(=O)C2(C)Cc3sc(-c4ccc(C(=O)N5CCOCC5)cc4)cc3C2c2ccccc2)s1 (racemic) [Example 22] |  | 55.76% | 34.5 nM |  |
| C[C@]1(C(=O)Nc2nncs2)Cc2sc(-c3ccc(C(=O)N4CCCC4)cc3)cc2[C@H]1c1ccccc1 (racemic) [Example 8] |  | 42.74% | 42.1 nM |  |
| C[C@]1(C(=O)Nc2nncs2)Cc2sc(-c3ccc(C(=O)N4CCOCC4)cc3)cc2[C@H]1c1cccc(F)c1 (relative stereo) [Example 24, (Cis)-4-(3-fluorophenyl)-5-methyl-2-(4-(morpholine-4-carbonyl)phenyl)-N-(1,3,4-thiadiazol-2-yl)-5,6-dihydro-4H-cyclopenta[b]thiophene-5-carboxamide] |  | 37.80% |  | 23.1 nM |
| CCN(C)C(=O)c1ccc(-c2cc3c(s2)C[C@](C)(C(=O)Nc2nncs2)[C@@H]3c2ccccc2)cc1 (racemic) [Example 4] |  | 52.82% |  | 35 nM |
| Cc1nnc(NC(=O)C2(C)Cc3sc(-c4ccc(C(=O)N5CCOCC5)cc4)cc3C2c2ccccc2)s1 (racemic) [Example 23] |  | 29.00% | 452 nM |  |
| CN(C)C(=O)c1ccc(-c2cc3c(s2)C[C@](C)(C(=O)Nc2nncs2)[C@@H]3c2ccccc2)cc1 (racemic) [Example 5] |  | 43.98% | 14 nM |  |
| CN(C)C(=O)c1ccc(-c2cc3c(s2)C[C@](C)(C(=O)Nc2nncs2)[C@@H]3c2ccccc2)cc1Cl [Example 14] |  | 42.02% | 63.7 nM |  |
| CN(C)C(=O)c1ccc(-c2cc3c(s2)C[C@](C)(C(=O)Nc2nncs2)[C@@H]3c2ccccc2)cc1Cl (racemic) [Example 6] |  | 29.32% | 53.1 nM |  |
| CCN(C)C(=O)c1ccc(-c2cc3c(s2)C[C@](C)(C(=O)Nc2nncs2)[C@@H]3c2ccccc2)cc1 [Example 15] |  | 53.20% | 18.8 nM |  |
| CN(C)C(=O)c1ccc(-c2cc3c(s2)C[C@](C)(C(=O)Nc2nncs2)[C@@H]3c2ccccc2)cc1 [Example 12] |  | 43.11% | 29.1 nM |  |
